“Also recorded” adds a separate entry of the source. Read-outs that look alike come from different tables or passages of the source. One block for each molecule: values may come before it.
Columns and labels:
Assay type in all cases: biochemical
G9 polypeptide [1] = target: T1, G9 polypeptide (Homo sapiens, UniProt Q7Z7M8); assay: Divalent metal ion requirement of G9 enzyme activity
T1 construct: made in house
T1 sequence (Q7Z7M8 26-397): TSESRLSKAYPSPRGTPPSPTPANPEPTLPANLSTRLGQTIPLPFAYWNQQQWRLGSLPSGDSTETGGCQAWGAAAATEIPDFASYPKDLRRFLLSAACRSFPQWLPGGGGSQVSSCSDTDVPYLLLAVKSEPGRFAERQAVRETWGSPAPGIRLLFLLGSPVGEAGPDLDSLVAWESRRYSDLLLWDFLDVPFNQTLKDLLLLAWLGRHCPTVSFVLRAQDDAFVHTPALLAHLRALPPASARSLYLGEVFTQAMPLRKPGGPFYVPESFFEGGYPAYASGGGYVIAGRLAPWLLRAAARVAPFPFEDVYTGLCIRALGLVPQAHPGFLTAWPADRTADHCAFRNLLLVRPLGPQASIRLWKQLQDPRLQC

G9 polypeptide [2] = target: T1, G9 polypeptide; assay: β1,3-N-acetylglucosaminyltransferase activity with synthetic mono-/oligosaccharide acceptor substrates ([14C]UDP-GlcNAc donor, scintillation counting); details: for transferring activity for acceptor substrate (in words): GlcNAc transfer by G9 to synthetic acceptor substrates; for Relative activity: Substrate specificity of G9, 10 μM acceptor substrate, UDP-GlcNAc donor, 37° C., usually 16 hours, ND = not detected
Method: The FLAG peptide-fused G9 polypeptide obtained in the example above was measured for a β1,3-N-acetylglucosaminyltransferase activity with monosaccharaide/oligosaccharide/glycolipid/glycoprotein as substrates according to known methods (e.g., the above-described references and FEBS, 462, 289 (1999), J. Biol. Chem. 269, 14730-14737 (1994), J. Biol. Chem., 267, 23507 (1992), and J. Biol. Chem., 267, 2994 (1992)).
pNp-α-Glc, pNp-β-Glc, pNp-α-GlcNAc, pNp-β-GlcNAc, pNp-α-Gal, oNp-β-Gal, pNp-α-GalNAc, pNp-α-Xyl, oNp-β-Xyl, pNp-α-Fuc, Bz-α-Man, Bz-α-ManNAc, core1-α-pNp, core3-α-pNp, Bz-β-lactoside, GlcNAcβ1-4GlcNAcβ-Bz, and Galβ1-4GlcNAcα-pNp were used as acceptor substrates (see Table 5). These substrates can be purchased from, for example, Sigma Corp. or Toronto Research Chemicals Inc.
A basic reaction solution in the case of using a radiolabeled substrate as the donor substrate comprises 20 μl in total of 14 mM HEPES buffer (pH 7.4), 10 mM MnCl2, 0.15% Triton CF-54, 0.75 mM ATP, 50 μM UDP-GlcNAc (manufactured by Sigma), 4.5 μM (50 nCi) [^14C]UDP-GlcNAc (manufactured by Amersham Biosciences), 10 μM substrate (each of the above-described acceptor substrates), and an appropriate amount (5 to 10 μl) of the purified enzyme protein (enzyme source obtained in Example 4). Enzyme reaction was carried out at 37° C. for several hours up to 16 hours (usually for 16 hours).
After the completion of reaction, the resulting solution was supplemented with 200 μl of 0.1M KCl and lightly centrifuged, and then a supernatant was obtained. After being washed once with 10 ml of methanol, the supernatant was loaded onto Sep-Pak C18 Cartridge (Waters) equilibrated by two-time washing with 10 ml of 0.1 M KCl, and the substrate and a product in the supernatant were adsorbed in the cartridge. After the cartridge was washed twice with 1 ml of pure water for HPLC, the adsorbed substrate and product were eluted with 1 ml of methanol. Following the mixing with a liquid scintillator (ACSII; manufactured by Amersham Biosciences), the amount of radiation from the product was measured with a scintillation counter.

G9 polypeptide [3] = target: T1, G9 polypeptide; assay: Activity measurement with glycoproteins as acceptor substrates (SDS-PAGE, autoradiography, glycopeptidase F digestion); details: 40 μg acceptor glycoprotein, 37° C., FIG. 4
Method: Enzyme reaction was carried out with glycoproteins as substrates. A reaction solution comprised 20 μl in total of 14 mM HEPES buffer (pH 7.4), 10 mM MnCl2, 0.15% Triton CF-54, 0.75 mM ATP, 50 μM UDP-GlcNAc (manufactured by Sigma), 4.5 μM (50 nCi) [^14C]UDP-GlcNAc (manufactured by Amersham Biosciences), 40 μg of an acceptor substrate, and an appropriate amount (5 to 10 μl) of a purified enzyme protein. A αl-acid glycoprotein (orosomucoid; manufactured by Sigma), ovalbumin (manufactured by Sigma), or ovomucoid (manufactured by Sigma) was used as the above described acceptor substrate. The enzyme purified with the anti-FLAG M1 antibody affinity gel in Example 4 was used as the above-described purified enzyme protein.
Reaction was carried out at 37° C. for several hours up to 16 hours. A portion of a reaction product was subjected to enzyme digestion with glycopeptidase F (GPF; manufactured by TAKARA) according to the instruction. The samples both before and after enzyme digestion were analyzed by 10% SDS-PAGE (see FIG. 4).

G9 polypeptide [4] = target: T1, G9 polypeptide; assay: Buffer and pH dependence of G9 enzyme activity
Method: Buffer conditions were investigated using the same reaction solution and reaction time as above but using HEPES (pH 6.75 to 7.4) and sodium cacodylate (pH 6.4 to 7.2) instead of 14 mM HEPES buffer (pH7.4) (see FIG. 2A).

[5] = metal ions at 2.5, 10 and 40 mM instead of 10 mM MnCl2, FIG. 2B

Molecule: [Cl][Cd][Cl] [Cd, CdCl2]
effect of divalent metal ion on G9 activity (in words) (G9 polypeptide [1]; [5]): slight enhancing effect

Molecule: [Cl-].[Cl-].[Co+2] [Co ion, CoCl2]
effect of divalent metal ion on G9 activity (in words) (G9 polypeptide [1]): significantly enhanced

Molecule: [Cl-].[Cl-].[Mg+2] [Mg, MgCl2]
effect of divalent metal ion on G9 activity (in words) (G9 polypeptide [1]; [5]): no enhancing effect is substantially observed

Molecule: [Cl][Ni][Cl] [Ni, NiCl2]
effect of divalent metal ion on G9 activity (in words) (G9 polypeptide [1]; [5]): slight enhancing effect

Molecule: [Cl-].[Cl-].[Zn+2] [Zn, ZnCl2]
effect of divalent metal ion on G9 activity (in words) (G9 polypeptide [1]; [5]): no enhancing effect is substantially observed

B2: G9 polypeptide: novel human β1,3-N-acetyl-D-glucosaminyltransferase, FLAG peptide-fused, amino acids 26 to 397 of SEQ ID NO: 2 (SEQ ID NO: 16) (protein, listed as Homo sapiens)
chain: TSESRLSKAYPSPRGTPPSPTPANPEPTLPANLSTRLGQTIPLPFAYWNQQQWRLGSLPSGDSTETGGCQAWGAAAATEIPDFASYPKDLRRFLLSAACRSFPQWLPGGGGSQVSSCSDTDVPYLLLAVKSEPGRFAERQAVRETWGSPAPGIRLLFLLGSPVGEAGPDLDSLVAWESRRYSDLLLWDFLDVPFNQTLKDLLLLAWLGRHCPTVSFVLRAQDDAFVHTPALLAHLRALPPASARSLYLGEVFTQAMPLRKPGGPFYVPESFFEGGYPAYASGGGYVIAGRLAPWLLRAAARVAPFPFEDVYTGLCIRALGLVPQAHPGFLTAWPADRTADHCAFRNLLLVRPLGPQASIRLWKQLQDPRLQC
modifications: FLAG peptide
pH of maximum activity (G9 polypeptide [4]; HEPES buffer (pH 6.75 to 7.4), FIG. 2A): ~7.0
pH dependence of activity (in words) (G9 polypeptide [4]; sodium cacodylate buffer, pH 6.4 to 7.2, FIG. 2A): rises with an increase in pH

The next lines start with results.

Relative activity (G9 polypeptide [2]): 100%
Molecule: CC(=O)N[C@H]1[C@@H](Oc2ccc([N+](=O)[O-])cc2)O[C@H](CO)[C@@H](O[C@@H]2O[C@H](CO)[C@H](O)[C@H](O)[C@H]2O)[C@@H]1O [Galβ1-4GlcNAcα-pNP]
transferring activity for acceptor substrate (in words) (G9 polypeptide [2]): particularly strong activity; also recorded: highest transferring activity

Relative activity (G9 polypeptide [2]): 27%
Molecule: OC[C@H]1O[C@@H](O[C@H]2[C@H](O)[C@@H](O)[C@H](OCc3ccccc3)O[C@@H]2CO)[C@H](O)[C@@H](O)[C@H]1O [Lactoside β-Bz]
transferring activity for acceptor substrate (in words) (G9 polypeptide [2]; listed as Bz-β-lactoside): significant activity; also recorded: a certain amount of transferring activity

effect of divalent metal ion on G9 activity (in words) (G9 polypeptide [1]; [5]): particularly remarkably enhanced
Molecule: [Cl][Mn][Cl] [Mn ion, MnCl2]

GlcNAc-transferring activity for glycoprotein acceptor substrate (in words) (G9 polypeptide [3]): relatively weak activity
B1: ovalbumin (protein, UniProt P01012 2-386, looked up)
Ovalbumin: GSIGAASMEFCFDVFKELKVHHANENIFYCPIAIMSALAMVYLGAKDSTRTQINKVVRFDKLPGFGDSIEAQCGTSVNVHSSLRDILNQITKPNDVYSFSLASRLYAEERYPILPEYLQCVKELYRGGLEPINFQTAADQARELINSWVESQTNGIIRNVLQPSSVDSQTAMVLVNAIVFKGLWEKAFKDEDTQAMPFRVTEQESKPVQMMYQIGLFRVASMASEKMKILELPFASGTMSMLVLLPDEVSGLEQLESIINFEKLTEWTSSNVMEERKIKVYLPRMKMEEKYNLTSVLMAMGITDVFSSSANLSGISSAESLKISQAVHAAHAEINEAGREVVGSAEAGVDAASVSEEFRADHPFLFCIKHIATNAVLFFGRCVSP
notes: glycoprotein acceptor substrate manufactured by Sigma

— patent US7396666B2, “Glycosyltransferase, nucleic acid encoding the glycosyltransferase and method of testing canceration using the nucleic acid” (National Institute of Advanced Industrial Science and …, priority 2002, dated 2008)
